Entries after “also recorded” stand apart in the source; their conditions may differ.
Key:
[1] = test system: receptor-binding domain (RBD) of the SARS-CoV-2 spike; assay type: cell-based, human
ACE2 [2] = assay: Cytokine screening for stimulation of Ace2 in HCEC (dd-PCR); assay type: cell-based, human; conditions: cytokine at 1, 10, and 100 ng/mL, 6 hours
Alexa 594-RBD [3] = assay: HCEC challenged with IFNγ: Alexa 594-RBD binding (unbiased imaging, Imaris); assay type: cell-based, human; conditions: IFNγ 100 ng/ml and lipid mediators 200 nM for 12 h, images 24 h after RBD
Method: (§1) For screening the stimulation of receptor ACE2 by cytokines, the HCEC were cultured with KGM until 50-60% confluence. Then, changed to KBM containing IL-1β, -2, -6 and 8, IFN-α, -ε, and -γ or TNFα at 1, 10 or 100 ng/ml. The cells were harvested after 6 hours and analyze for the gene expression of Ace2. In other experiments, HCEC were stimulated with IFNγ, and thereafter, lipid mediators were added. For the Alexa 594-conjugated RBD binding, IFNγ was used as a cytokine trigger. At 12 hours after cytokine exposure and lipid mediator treatments, […] of labeled RBD was added to the medium. The evaluation of RBD binding was conducted 24 hours after.
Twenty-four hours after Alexa 594-RBD was added to the HCEC, the cells were washed with PBS (3×/5 min) and fixed with 4% paraformaldehyde for 30 minutes at RT. The HCEC were washed 2× with PBS and stained with Hoechst 33342 Solution (ThermoFisher Scientific, Cat. 62249) for 30 minutes at RT. Next, the HCEC were washed 2× with PBS before imaging. For unbiased data collection, 7 designated areas were defined in each well (FIG. 63) and captured with an Olympus FV3000 confocal laser scanning microscopy under “Multi Area Time Lapse” (MATL) mode. All images were acquired with the same parameters and Z-section range, converted and inputted in the Imaris software version 9.5.1. The threshold for the control images was defined by the HCEC without Alexa 594-conjugated RBD of S protein and using it as a threshold filter for the Imaris batch image processing function. The sum of total intensity for each image was used to evaluate the binding efficiency.

injured rat cornea = assay: Rat cornea alkali burn: corneal RNA-seq, cytokine storm, NFkB/inflammation, senescence, integrin and protease genes; assay type: in vivo; conditions: for availability of ACE2, TMPRSS2 and Furin increased after alkali burn: rat cornea after alkali burn, RNA-seq, ACE2 and Furin confirmed by JESS (Example 15)
Method: (§2) The rats were anesthetized by intraperitoneal injection of Ketamine (50-100 mg/kg) plus xylazine (5-10 mg/kg). A 4 mm diameter filter paper soaked in 1 N NaOH was placed on the central cornea of the right eye for 45 seconds, and then the eye was thoroughly washed with […] of saline. After injury, the rats were randomly divided into five treatment groups: vehicle; lipoxin A4 (LXA4) from Cayman Chemical (Ann Arbor, MI, USA); R,R Resolvin D6 isomer (RvD6i), R,R neuroprotection D (NPD1), and elovanoid (ELV)-N32. All lipid solutions were prepared at the final concentration of […] using PBS with the minimal contamination of ethanol by evaporating the ethanol and immediately dissolve the lipids in PBS, then vortex well for 2 min. Topical administration (20 μl) was done 3×/day for 14 days. The experiments were double-blinded with the lipid mediators coded during the whole experiments. At the end of the study, when all data was collected, the code was opened.
(§3) Injured corneas (n=5/condition) were harvested and homogenized with TRIzol (Thermo Fisher Scientific) on ice with a glass Dounce homogenizer. RNA sequencing was performed as described^14. Briefly, after mRNA extraction and determination of purity, 8 ng of total RNA was reverse transcribed, and total cDNAs were amplified using ISPCR primer, and the library was made with the Nextera XT DNA library preparation kit (Illumina, San Diego, CA, USA). The libraries were pooled with the same molarity and sequenced using the NextSeq 500/550 High Output Kit v2 (75 cycles, Illumina). After demultiplexing, RNA-seq data were aligned to the Rattus Norvegicus reference genome (.ensembl.org/pub/release-98/fasta/rattus_norvegicus/dna/) using the Subread package v2.0.1 alignment function39. The BAM files for sequencing data alignment were counted using featureCounts function of Subread tool^40 using the macOS Catalina. The raw count data were subjected to differential gene expression analysis using DESeq2 package for R^41 with the vehicle group as reference. The adjusted p-values were named as the false discover rate (FDR).

ACE2 [4] = assay: Rat cornea alkali burn: ACE2 abundance by Jess capillary-based Western Blot; assay type: in vivo; conditions: rat cornea after alkali burn, eye drops 20 μl/eye, 3 times/day for 14 days, day 14
Description: Sprague-Dawley rats (8-week-old male) were obtained from Charles River Laboratories (Wilmington, MA, USA) and kept at the Animal Care of the Neuroscience Center of Excellence, Louisiana State University Health (LSUH; New Orleans, LA, USA). All animals were handled in compliance with the guidelines of the ARVO Statement for the Use of Animals in Ophthalmic and Vision Research, and the experimental protocol was approved by the Institutional Animal Care and Use Committee (IACUC) at LSUH.
as §2
Briefly, samples were lysed with RIPA buffer containing a protease inhibitor cocktail (Sigma, Cat. P8340). Cell debris was removed after 10 min centrifugation at 16,000×g. Protein concentration was determined by BCA assay (Thermo Fisher Scientific, Cat. 23225) and 1 μg used/reaction. Fluorescent Master Mix was mixed with 40 mM DTT, and the mixture was added to each sample to provide a denaturing and reducing environment. Samples were heated at 95° C./5 min, and 3 μL of each sample were loaded. The 12-230 kDa cartridge (Protein Simple—#SM-W004) was used. Primary antibodies were diluted in antibody diluent 2 buffer (Protein Simple, #042-203) while the working solution of secondary antibodies was provided by the company (Protein Simple, #042-206). Then, the filled plate was spin-down for 10 min at 1,000×g to remove bubbles and plate, and capillaries were loaded into the Jess machine. For data analysis, the area of spectra that matched the molecular weight of the target protein was used. To reduce the coefficient variant, we analyzed the GAPDH for each capillary. The ratio of the targeted protein to GAPDH was used for statistical comparisons. For visualization, the artificial lanes generated from spectra volume was used.

[5] = test system: human corneal epithelial cells (HCEC); assay: HCEC challenged with IFNγ: SASP secretome (β-Gal staining); assay type: cell-based; conditions: HCEC 24 h after IFN-γ challenge
ACE2 [6] = assay: Rat cornea alkali burn: corneal RNA-seq, Ace2 gene expression; assay type: in vivo; conditions: rat cornea after alkali burn, eye drops 3 times/day for 14 days, RNA-seq day 14
Method: as §2, §3

Alexa 594-RBD [7] = assay type: in vivo; conditions: rat cornea after alkali burn; 14 days treatment; Alexa 594-RBD 1 μg/eye, 3 times at day 15, examined a day later
Cdkn2a (p16INK4a) = assay: HCEC challenged with IFNγ: Cdkn2a gene expression; assay type: cell-based, human; conditions: IFNγ 100 ng/ml
Description: All experiments with human corneal epithelial cells were approved by the Institutional Review Board of LSUHNO and conducted in accordance with NIH guidelines. HCEC were kept frozen in the laboratory at passage 2544. Cells were maintained in keratinocyte growth (KGM) medium containing the keratinocyte basal medium (KBM) (Lonza: CC-3101) supplemented with bovine pituitary extract (BPE), hEGF, Insulin, Hydrocortisone and Gentamicin Sulfate-Amphotericin (GA-1000) (Lonza, Cat. CC-4131). For all experiments, cells were seeded at 30,000 cells/cm2.
as §1
Quantitative PCR was performed with the Biomark HD system (Fluidigm, San Francisco, CA, USA). Briefly, 200 ng of RNA was reverse-transcribed using iScript Reverse Transcription Supermix (Bio-Rad), and the cDNA was pre-amplified using the PreAmp Master Mix (PN 100-5580; Fluidigm). The cDNA was then subjected to Exonuclease I treatment and diluted 5 times in TE Buffer. The qPCR reaction mixture and primer reaction mixture were made and loaded into the Biomark 96.96 IFC™ (Integrated Fluidic Circuit). The enzyme reaction was mixed using Juno™ Controller (Fluidigm) and run using the cycling program of (i) 70° C. for 40 minutes followed by 60° C. for 30 seconds, (ii) hot start for 1 minute at 95° C., (iii) 30 cycles of denaturation at 96° C. for 5 seconds, and annealing at 60° C. for 20 seconds, and (iv) melting curves between 60° C. and 95° C. with 1° C. increments/3 seconds. The Ct value of target genes was normalized to the house-keeping genes Gapdh, Hprt1, and Tfrc before normalized to the vehicle group. Relative fold changes from the ΔΔCT calculation was used to make the graph.

human alveolar cells = assay: Fate of added VLC-PUFAs in human bronchiole/alveoli cell cultures (LC-MS/MS); conditions: human lung cell cultures; paired with FA18:1 or FA18:0

IL1β
internalized RBD signal [1]: increased
Ace2 expression (dd-PCR) (ACE2 [2]): no significant increase

TNFα
internalized RBD signal [1]: increased
Ace2 expression (dd-PCR) (ACE2 [2]): no significant increase

CC/C=C\C[C@H](O)/C=C/C=C\C/C=C\C/C=C\C=C\[C@@H](O)CCC(=O)O [RvD6, reference compound]
IFNγ-stimulated Alexa 594-RBD binding (Alexa 594-RBD [3]): decrease

CCCCC[C@@H](O)/C=C/C=C\C=C\C=C\[C@@H](O)[C@@H](O)CCCC(=O)O [LXA4, reference compound]
availability of ACE2, TMPRSS2 and Furin increased after alkali burn (injured rat cornea): remarkable blocked
availability of ACE2, TMPRSS2 and Furin increased after alkali burn (injured rat cornea; listed as Lipoxin A4): downregulates
Il6 and Vegfa expression (injured rat cornea; rat cornea, RNA-seq 14 days after injury): reduced
ACE2 abundance (protein, normalized to GAPDH) (ACE2 [4]): decrease
ACE2 abundance (protein, normalized to GAPDH) (ACE2 [4]; listed as Lipoxin A4): downregulates
senescence programming genes and SASP secretome activation (β-Gal) [5]: not
Ace2 gene expression levels (ACE2 [6]): decrease
Ace2 gene expression levels (ACE2 [6]; listed as Lipoxin A4): downregulates
binding of Alexa 594-RBD to injured cornea (Alexa 594-RBD [7]): decrease; also recorded: counteracted; also recorded: significant effect
Cdkn2a activation (Cdkn2a (p16INK4a)): does not

CC/C=C\C/C=C\C/C=C\C/C=C\C/C=C\C/C=C\CCCCCCCCCCCCC(=O)O [32:6, (14Z,17Z,20Z,23Z,26Z,29Z)-dotriaconta-14,17,20,23,26,29-hexaenoic acid]
RBD protein internalization (RBD located below the membrane line) [1]: decrease; also recorded: reduces
incorporation in phosphatidylcholine molecular species (human alveolar cells): incorporated

CC/C=C\C[C@H](O)C#C/C=C/C=C/[C@H](O)C/C=C\C/C=C\CCCCCCCCCCCCC(=O)OC [ELV 32(AC) acetylenic methyl ester, methyl (14Z,17Z,20R,21E,23E,27S,29Z)-20,27-dihydroxydotriaconta-14,17,21,23,29-pentaen-25-ynoate]
RBD of the SARS-CoV-2 spike entrance / internalized RBD [1]: downregulated

IL8
Ace2 expression (dd-PCR) (ACE2 [2]): no significant increase

CC/C=C\C[C@H](O)\C=C/C=C/C=C/[C@H](O)C/C=C\C/C=C\CCCCCCCCCCCCC(=O)OC [ELV32 methyl ester, methyl (14Z,17Z,20R,21E,23E,25Z,27S,29Z)-20,27-dihydroxydotriaconta-14,17,21,23,25,29-hexaenoate]
RBD of the SARS-CoV-2 spike entrance / internalized RBD [1]: downregulated

CC/C=C\C[C@H](O)\C=C/C=C/C=C/[C@H](O)C/C=C\C/C=C\CCC(=O)O [NPD1]
ACE2 abundance (protein, normalized to GAPDH) (ACE2 [4]): failed to decrease; also recorded: no effect
senescence programming genes and SASP secretome activation (β-Gal) [5]: blocked
binding of Alexa 594-RBD to injured cornea (Alexa 594-RBD [7]): fails; also recorded: did not have an effect; also recorded: failed to decrease
Cdkn2a activation (Cdkn2a (p16INK4a)): decrease
IFNγ-stimulated Alexa 594-RBD binding (Alexa 594-RBD [3]): decrease; also recorded: attenuated

IL6
Ace2 expression (dd-PCR) (ACE2 [2]): no significant increase

CC/C=C\C/C=C\C/C=C\C/C=C\C/C=C\C/C=C\CCCCCCCCCCCCCCC(=O)O [34:6, (16Z,19Z,22Z,25Z,28Z,31Z)-tetratriaconta-16,19,22,25,28,31-hexaenoic acid]
RBD protein internalization (RBD located below the membrane line) [1]: decrease; also recorded: reduces
incorporation in phosphatidylcholine molecular species (human alveolar cells): incorporated

B1: IFNγ (protein, UniProt P01579 24-161, looked up)
Interferon gamma: QDPYVKEAENLKKYFNAGHSDVADNGTLFLGILKNWKEESDRKIMQSQIVSFYFKLFKNFKDDQSIQKSVETIKEDMNVKFFNSNKKKRDDFEKLTNYSVTDLNVQRKAIHELIQVMAELSPAAKTGKRKRSQMLFRG
Ace2 expression (dd-PCR) (ACE2 [2]): activate

B2: IFNε (protein, UniProt Q86WN2 22-208, looked up)
Interferon epsilon: LDLKLIIFQQRQVNQESLKLLNKLQTLSIQQCLPHRKNFLLPQKSLSPQQYQKGHTLAILHEMLQQIFSLFRANISLDGWEENHTEKFLIQLHQQLEYLEALMGLEAEKLSGTLGSDNLRLQVKMYFRRIHDYLENQDYSTCAWAIVQVEISRCLFFVFSLTEKLSKQGRPLNDMKQELTTEFRSPR
Ace2 expression (dd-PCR) (ACE2 [2]): no significant increase

Source: US20240041813A1, “VERY-LONG-CHAIN POLYUNSATURATED FATTY ACIDS, ELOVANOID HYDROXYLATED DERIVATIVES, AND METHODS OF USE” (priority 2020, published 2024)
